Assay results published in patent US9555061B2, “Synthesis and analysis of compounds capable of inducing differentiation of human mesenchymal stems cells into hepatocytes” (National University Corporation Torrori University, priority 2011, dated 2017).
Like-named read-outs stand apart in the source and are kept apart here.

Legend:
[1] = test system: UE7T-13 cells; assay: Proliferation potential (toxicity), MTT assay (UE7T-13); conditions: days 2, 4, 8 of treatment
[2] = test system: clinical specimen-derived mesenchymal stem cells; assay: PAS staining in clinical specimen-derived mesenchymal stem cells; format: cell-based, human; conditions: day 8, PN-3-13 20 μM, IC-2 40 μM
Protocol: PAS staining was performed according to the following procedure. A cover glass that had been sterilized with 100% ethanol was placed on a 12-well plate. Cells were seeded on the cover glass at a cell density of 1.8×10^4 cells/cm^2. This day was designated as day 0. At day 1 corresponding to the next day, each medium was changed to a medium containing HC-2 (at a final concentration of 20 μM), PN-3-13 (at a final concentration of 20 μM), IC-2 (at a final concentration of 40 μM), or 0.1% DMSO. At day 4, the medium was changed in a manner similar to that at day 1, and the cells were cultured until day 8. At day 8, the cells were washed twice with PBS and were fixed with 4% paraformaldehyde for 30 min. As a negative control, α-amylase (Nacalai Tesque) at a final concentration of 10 mg/ml was added, and the cells were incubated therewith at 37° C. for 1 h to digest their glycogen. Subsequently, the cells were treated with 1% aqueous periodic acid for 5 min. Then, the cells were treated with a Schiff reagent (Nacalai Tesque) for 15 min to stain glycogen. After that, the cells were washed three times with aqueous sulfurous acid and were then washed three times with distilled water. The nuclei were stained with Mayer's Hematoxylin (MUTO PURE CHEMICALS CO., LTD.) for 1 min. […]

[3] = test system: clinical specimen-derived mesenchymal stem cells; assay: RT-PCR of hepatocyte differentiation marker in clinical specimen-derived mesenchymal stem cells; format: cell-based, human; conditions: hexachlorophene 4 μM, HC-2 20 μM, PN-3-13 20 μM, IC-2 40 μM
Protocol: A fresh bone marrow aspirate was collected under informed consent from a patient (a person) with osteoarthritis who underwent replacement arthroplasty at the Department of Orthopedic Surgery, Tottori University Hospital. This aspirate was subjected to density gradient centrifugation using ficoll (Amersham Biosciences) to separate bone marrow mononuclear cells (FIG. 31). These bone marrow mononuclear cells were suspended in 1 ml of Hanks' balanced salt solution (HBSS, Gibco, Life Technologies Corp.) supplemented with a 100-fold diluted APC-labeled anti-CD90 antibody, a 407-fold diluted PE-labeled anti-CD271 antibody, and 2% fetal bovine serum (FBS, Defined, Thermo Fisher Scientific Inc.), and were stained on ice for 30 min. A flow cytometer (MoFlo XDP, Beckman Coulter Inc.) was used to selectively separate mesenchymal stem cells. The resulting cells were cultured in Dulbecco's Modified Eagle's Medium (Low Glucose, Gibco, Life Technologies Corp.) containing 20% FBS, 100 U/ml penicillin, […] streptomycin (Nacalai Tesque), and 20 ng/ml basic fibroblast growth factor (TRANS GENIC INC., Ltd.) on a 35-mm dish under conditions at 37° C. and 5% CO2. The medium was changed every 4 days. After colonies were formed, the cells were detached using a 0.025% trypsin/1 mM EDTA solution (Nacalai Tesque), split on a 100-mm dish, and cultured under conditions at 37° C. and 5% CO2. Then, the cells which were kept 70 to 80% confluent were detached using trypsin treatment. These cells in one dish were divided into four dishes for passage.
Cells were seeded on a 6-well plate at a cell density of 1.8×10^4 cells/cm^2. This day was designated as day 0. At day 1 corresponding to the next day, the medium was changed to a medium containing any one of hexachlorophene (at a final concentration of 4 μM), HC-2 (at a final concentration of 20 μM), PN-3-13 (at a final concentration of 20 μM), IC-2 (at a final concentration of 40 μM), and 0.1% DMSO. […]

[4] = test system: Wnt/β-catenin signaling pathway; assay: Ability of inhibiting Wnt/β-catenin pathway, luciferase assay (UE7T-13); format: cell-based, human; conditions: 8 days after the treatment; pTCF4-CMV-luciferase reporter
Excerpt: FIG. 3 is a schematic diagram illustrating how to establish a human mesenchymal stem cell stably expressing a β-catenin/TCF4/luciferase reporter gene. FIG. 3 illustrates how to construct pTCF4-CMVpro-GL4.20 plasmid by using a luciferase expression vector. The pTCF4-CMVpro-GL4.20 plasmid contains three TCF4 sequences […] upstream of a CMV promoter to express luciferase. In addition, pCMVpro-GL4.20 plasmid was constructed as a control. The resulting plasmids were each linearized, introduced into UE7T-13 by electroporation, and selected using puromycin (0.25 μg/ml) supplemented in a medium. Puromycin-resistant cells were cloned and used for a luciferase assay.
The cell line having a vector stably expressing luciferase was seeded on a 24-well plate, and was cultured at 37° C. At the next day, the medium was changed to a medium containing IC-2, etc., and the cell line was further cultured at 37° C. After that, at days 1, 4, and 8, a luciferase assay system (Promega) was used and the luciferase activity was read with a fluorescence plate reader (ARVO) at a wavelength of 556 nm.

[5] = test system: CD90+CD271+ bone marrow-derived mesenchymal stem cells; assay: Urea assay in CD90+CD271+ bone marrow-derived mesenchymal stem cells; format: cell-based, human; conditions: hexachlorophene 4 μM, PN-3-13 20 μM, IC-2 40 μM; day 8 plus 96 h ammonium chloride
Protocol: A urea assay was performed according to the following protocol. CD90^+CD271^+ bone marrow-derived mesenchymal stem cells were seeded on a 24-well plate at a cell density of 1.8×10^4 cells/cm^2. This day was designated as day 0. At day 1 corresponding to the next day, each medium was changed to a medium containing hexachlorophene (at a final concentration of 4 μM), HC-2 (at a final concentration of 20 μM), PN-3-13 (at a final concentration of 20 μM), IC-2 (at a final concentration of 40 μM), or 0.1% DMSO. At day 4, the medium was changed in a manner similar to that at day 1, and the cells were cultured until day 8. At day 8, the medium was removed, and replaced with a medium containing ammonium chloride (Nacalai Tesque) at a final concentration of 5 mM. The cells were further cultured for 96 h. At 96 h after the addition of ammonium chloride, levels of urea in the medium were determined using a QuantiChrom Urea Assay Kit (BioAssay Systems) according to the attached protocol by reading the absorbance at a wavelength of 520 nm with a microplate reader. The levels of urea were calculated based on a standard sample according to the attached calculation method. As a negative control for the urea assay, used were CD90^+CD271^+ bone marrow-derived mesenchymal stem cells that were seeded one day before the day of the immunostaining and were not subjected to the differentiation induction.

[6] = test system: clinical specimen-derived mesenchymal stem cells; assay: Immunofluorescence staining in clinical specimen-derived mesenchymal stem cells; format: cell-based, human; conditions: day 8; PN-3-13 20 μM, IC-2 40 μM
Protocol: A cover glass that had been sterilized with 100% ethanol was placed on a 12-well plate. Cells were seeded on the cover glass at a cell density of 1.8×10^4 cells/cm^2. This day was designated as day 0. At day 1 corresponding to the next day, the medium was changed to a medium containing HC-2 (at a final concentration of 20 μM), PN-3-13 (at a final concentration of 20 μM), IC-2 (at a final concentration of 40 μM), or 0.1% DMSO. At day 4, the medium was changed in a manner similar to that at day 1. At day 8, the culture medium was removed and the cells were washed twice with PBS. Then, in order to perform immunostaining of albumin, the cells were fixed for 20 min with 4% paraformaldehyde (Nacalai Tesque) containing 8% sucrose (Wako Pure Chemical Industries, Ltd.). For immunostaining of C/EBPα or CYP1A1, the cells were fixed for 20 min with 4% paraformaldehyde. After that, the cells were permeated with 0.2% Triton X-100 (Wako Pure Chemical Industries, Ltd.) for 10 min and were then blocked in 3% BSA (Nacalai Tesque) at room temperature for 30 min without shaking.
After the primary antibody reaction, the cells were washed with 0.1% BSA/PBS. […] The cells were incubated with each antibody, and were kept in a dark condition at room temperature for 1 h to carry out a secondary antibody reaction. Their nuclei were stained with DAPI (Cell Signaling Technology Inc.). […]

[7] = test system: UE7T-13 cells; assay: Periodic acid-Schiff (PAS) staining (UE7T-13); format: cell-based, human
Protocol: (3-4) Periodic Acid-Schiff (PAS) Staining (UE7T-13) A cover glass (22×22 mm, […]) was sterilized with 70% EtOH and placed in a 6-well plate. Next, cells were seeded on the cover glass and cultured in a medium containing IC-2, etc. At 8, 16, and 24 days after the initiation of the culture, the cells were washed twice with PBS. Then, the cells were treated with 4% paraformaldehyde/PBS for 20 min and fixed onto the cover glass. As a negative control, 10 mg/ml of α-amylase (10 mg/ml; in 0.1 M phosphate buffer solution at pH 6.8) was added, and the cells were incubated therewith at 37° C. for 1 h to digest their glycogen. Subsequently, 1% aqueous periodic acid was used for oxidation treatment for 10 min. After that, the cells were treated with a Schiff reagent for 15 min to stain glycogen. Then, the cells were washed three times with aqueous sulfurous acid and were washed three times with distilled water. After their nuclei were stained with Mayer's hematoxylin, 50% glycerol diluted with PBS was used to mount the cover glass. Finally, the cells were observed under a light microscope. The cells which had been cultured with 0.1% DMSO were used as a control.

[8] = test system: β-catenin/Tcf complex; conditions: Drug Discov. Today 2005, 10, 1467-1474; cited from earlier work
[9] = test system: UE7T-13 cells; conditions: human

levels of expression of albumin, C/EBPα, and CYP1A1 compared with negative control (0.1% DMSO) [6]	SMILES	concentration with very low cell toxicity toward UE7T-13 cells [1] [µM]	cellular glycogen accumulation compared with negative control (0.1% DMSO) [2]	expression of albumin [3]	concentration that significantly inhibited the Wnt/β-catenin signaling pathway [4] [µM]	cellular urea synthesis compared with negative control (0.1% DMSO) [5]	intracellular glycogen accumulation compared with negative control (0.1% DMSO) [7]	antagonism of transcriptional activation by a β-catenin/Tcf complex [8]	concentration with very low cell toxicity toward UE7T-13 cells [9] [µM]
apparently increased	O=C(N/N=C/c1c(F)c(F)c(F)c(F)c1F)c1ccccc1Oc1ccccc1 [PN-3-13, N′-[(E)-pentafluorophenylmethylidene]-2-phenoxybenzohydrazide]	≤ 10	apparent increase	induced	≥ 9	apparent increase	–	–	–
–	O=C1[C@H](Cc2ccc(O)cc2)N2C(=O)CCN(C(=O)NCc3ccccc3)[C@H]2CN1Cc1cccc2ccccc12 [ICG-001]	–	–	–	–	–	did not increase	potent antagonist	–
–	COc1c(Cl)cc(Cl)c(Cl)c1Cc1c(Cl)c(Cl)cc(Cl)c1OC [HC-1, bis(2,3,5-trichloro-6-methoxyphenyl)methane]	–	–	–	≥ 2	–	–	–	≤ 8
